Counter-ions that a name gives are not always drawn.
System: DTH granuloma (DTH GRA) lesion in mBSA-sensitized mice
Experiment: Delayed Type Hypersensitivity Granuloma Assay (DTH GRA) model for inflammation
Type: in vivo, mouse
Conditions: Mus musculus, 216 h, Table 2, Formula 2 compounds; for inhibition in vivo at 10 mg/kg: po, 10 mg/kg PO, mouse DTH granuloma excised after nine days
Description: This assay is described by Dunn, C.
Briefly, mBSA-sensitized mice have a DTH granuloma (DTH GRA) lesion induced by subcutaneously implanting a mBSA-soaked filter which is excised after nine days. Compounds are administered to the mice to determine their effect on the lesions. The results are recorded as percent inhibition. […] Inhibition of 10 to 20% is considered to indicate anti-granuloma activity.
Again, as in Table 1, the results are recorded as percent inhibition. […] Inhibition of 10 to 20% is considered to indicate anti-granuloma activity. […]

Structure (SMILES) | inhibition in vivo at 10 mg/kg | inhibition in vivo at 1 mg/kg (tested at 1 mg/kg, PO)
CCOP(=O)(OCC)C(CCc1nc(-c2ccccc2)cc(=O)n1C)P(=O)(OCC)OCC [p, (3-(2-(3-Methyl-4-oxo-6-phenyl-4(3H)-pyrimidinyl))-propylidine)bisphosphonic acid tetraethyl ester] | 60% | –
Cn1c(CCC(P(=O)(O)O)P(=O)(O)O)nc(-c2ccccc2)cc1=O [q, (3-(2-(3-Methyl-4-oxo-6-phenyl-4(3H)-pyrimidinyl))-propylidine)bisphosphonic acid disodium salt] | – | 57%
CCOP(=O)(OCC)C(CCc1nc(-c2ccccc2)cc(=O)n1Cc1ccccc1)P(=O)(OCC)OCC [r, (3-(2-(3-Benzyl-4-oxo-6-phenyl-4(3H)-pyrimidinyl))-propylidine)bisphosphonic acid tetraethyl ester] | 17% | –
CCOP(=O)(O)C(CCc1nc(-c2ccccc2)cc(=O)n1C)P(=O)(OCC)OCC (centres unmarked) [rr, (3-(2-(3-Methyl-4-oxo-6-phenyl-4(3H)-pyrimidinyl))-propylidine)bisphosphonic acid triethyl ester sodium salt] | 50% | –
CCOP(=O)(OCC)C(CCc1nc(-c2cccc(F)c2)cc(=O)n1C)P(=O)(OCC)OCC [s, (3-(2-(3-Methyl-4-oxo-6-(3-fluoro-phenyl)-4(3H)-pyrimidinyl))-propylidine)bisphosphonic acid tetraethyl ester] | 32% | –
C=CCn1c(CCC(P(=O)(OCC)OCC)P(=O)(OCC)OCC)nc(-c2ccccc2)cc1=O [t, (3-(2-(3-Allyl-4-oxo-6-phenyl-4(3H)-pyrimidinyl))-propylidine)bisphosphonic acid tetraethyl ester] | 7% | –
CCOP(=O)(OCC)C(CCc1nc(-c2cccc(C)c2)cc(=O)n1C)P(=O)(OCC)OCC [v, (3-(2-(3-Methyl-4-oxo-6-(3-methyl-phenyl)-4(3H)-pyrimidinyl))-propylidine)bisphosphonic acid tetraethyl ester] | 40% | –
CCOP(=O)(OCC)C(CCc1nc(-c2cccc(OC)c2)cc(=O)n1C)P(=O)(OCC)OCC [w, (3-(2-(3-Methyl-4-oxo-6-(3-methoxy-phenyl)-4(3H)-pyrimidinyl))-propylidine) bisphosphonic acid tetraethyl ester] | 13% | –
CCOP(=O)(OCC)C(CCc1nc(-c2cccc(C(F)(F)F)c2)cc(=O)n1C)P(=O)(OCC)OCC [x, (3-(2-(3-Methyl-4-oxo-6-(3-trifluoromethyl-phenyl)-4(3H)-pyrimidinyl))propylidine)bisphosphonic acid tetraethyl ester] | 6% | –
CCOP(=O)(OCC)C(CCc1nc(-c2ccccc2)c(Br)c(=O)n1C)P(=O)(OCC)OCC [y, (3-(2-(3-Methyl-4-oxo-5-bromo-6-phenyl-4(3H)-pyrimidinyl))-propylidine)bisphosphonic acid tetraethyl ester] | 7% | –
COP(=O)(OC)C(CCc1nc(-c2ccccc2)cc(=O)n1C)P(=O)(OC)OC [z, (3-(2-(3-Methyl-4-oxo-6-phenyl-4(3H)-pyrimidinyl))-propylidine)bisphosphonic acid tetramethyl ester] | 36% | –

Reference: patent US5397774A, “Pyrazolopyrimidine and pyrimidinyl bisphosphonic esters as anti-inflammatories” (The Upjohn Company, priority 1993, dated 1995)
